The source of these data is ChEMBL document CHEMBL1201862, “PubChem BioAssay data set” (2004).

Test systems include NCI-H522; EKVX; LOX IMVI; A549; U-251; HT-29; UO-31; SK-OV-3; 786-0; TK-10; PC-3; NCI/ADR-RES; HCC 2998; SF-268; NCI-H226; Malme-3M; NCI-H23; T47D; HOP-92; SN12C.
Common to all, as to assay: NCI anticancer screen, dose series, 48 h

Molecules are shown by their SMILES.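 Cells were grown in 96-well plates and exposed to each compound for 48 hours at five concentrations; endpoints were interpolated linearly between bracketing concentrations, or set to the highest concentration if not reached. GI50 is the concentration that inhibits growth by half.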 Active and inactive are the calls of the source. Cut-off read from the data, not from the text of the source: active = GI50 up to about 1.1 µM and inactive = higher. Residues, ends and D or L forms follow the SMILES beside them. *: point of attachment. OBn = c1ccc(CO*)cc1

For `C/C(=N/CC(=O)O)c1ccccc1`, the GI50 with NCI-H522 is 34.8 µM (inactive); in the test with EKVX it was > 100 µM (inactive); in the test on LOX IMVI, > 100 µM (inactive); in the test with A549 it was > 100 µM (inactive); in the test with U-251, > 100 µM (inactive); in the test with HT-29 it was > 100 µM (inactive). Further, the GI50 in the test on UO-31 is 97.5 µM (inactive); in the test with SK-OV-3 it was > 100 µM (inactive); in the test on 786-0 it was > 100 µM (inactive); with TK-10, > 100 µM (inactive); in the test on PC-3, > 100 µM (inactive); in the test on NCI/ADR-RES, > 100 µM (inactive). The GI50 is 39.8 µM (inactive) in the test with HCC 2998; > 100 µM (inactive) in the test on SF-268; > 100 µM (inactive) in the test on NCI-H226; > 100 µM (inactive) in the test on Malme-3M; 92.5 µM (inactive) in the test on NCI-H23; > 100 µM (inactive) in the test on T47D. Further, the GI50 in the test on HOP-92 and in the test with SN12C was > 100 µM (inactive) each time.

For `C[C@]12CC[C@H]3[C@@H](CCC4=C[C@@H](OC5OCC(OC6OC(CO)C(O)C(O)C6O)C(O)C5O)CC[C@@]43C=O)[C@@]1(O)CCC2C1=CC(=O)OC1` (stereo not given in full), the GI50 in the test on NCI-H522 is 0.203 µM (active); with EKVX, 0.441 µM (active); with LOX IMVI, 0.63 µM (active); with A549 it was 0.165 µM (active); with U-251, 0.849 µM (active); in the test with HT-29 it was 0.832 µM (active). Besides, the GI50 is 0.561 µM (active) in the test on UO-31; 1.13 µM (inactive) with SK-OV-3; 0.365 µM (active) in the test with 786-0; 0.681 µM (active) with TK-10; 0.631 µM (active) with PC-3; 0.469 µM (active) in the test with NCI/ADR-RES. The GI50 was 0.421 µM (active) in the test on HCC 2998; 0.36 µM (active) in the test with SF-268; 2.15 µM (inactive) with NCI-H226; 0.59 µM (active) in the test with Malme-3M; 0.195 µM (active) in the test on NCI-H23; 1.5 µM (inactive) in the test with T47D. The figures for the GI50 in the test with HOP-92 and with SN12C were 1.11 µM (active) and 0.364 µM (active), respectively.

For the compound `O=[N+]([O-])/C=C/c1cn(CCCCCn2cc(/C=C/[N+](=O)[O-])c3ccccc32)c2ccccc12`, the GI50 in the test with NCI-H522 is 10.4 µM (inactive); with EKVX it was 11.6 µM (inactive); in the test with LOX IMVI, 0.611 µM (active); in the test with A549, 2.96 µM (inactive); in the test on U-251, 1.61 µM (inactive); with HT-29, 1.56 µM (inactive). The GI50 was 3.64 µM (inactive) with UO-31; 23.2 µM (inactive) in the test on SK-OV-3; 0.392 µM (active) with 786-0; 1.82 µM (inactive) with TK-10; 3.58 µM (inactive) in the test on PC-3; 10.2 µM (inactive) with NCI/ADR-RES. The GI50 in the test on HCC 2998 was 1.04 µM (active); in the test with SF-268 it was 2.18 µM (inactive); in the test with NCI-H226, 0.805 µM (active); in the test on Malme-3M it was 3.54 µM (inactive); with NCI-H23, 4.02 µM (inactive); in the test on T47D, 8.22 µM (inactive). Further, the figures for the GI50 with HOP-92 and in the test on SN12C were 19.8 µM (inactive) and 3.16 µM (inactive), respectively.

For `NC(CCC(=O)OCc1ccccc1)C(=O)NC(CCC(=O)OCc1ccccc1)C(=O)O` (stereo not given) (H-Glu(OBn)-Glu(OBn)-OH; configuration not given here), the GI50 in the test with NCI-H522, with EKVX, in the test on LOX IMVI, in the test on A549, in the test with U-251 and with HT-29 was > 100 µM (inactive) throughout. In addition, the GI50 with UO-31, in the test with SK-OV-3, in the test on 786-0, with TK-10, in the test with PC-3 and with NCI/ADR-RES was > 100 µM (inactive) each time. The GI50 with HCC 2998, in the test on SF-268, in the test with NCI-H226, in the test with Malme-3M, in the test with NCI-H23 and in the test on T47D was > 100 µM (inactive) each time. The GI50 in the test on HOP-92 and with SN12C was > 100 µM (inactive) in each case.

On to `CCOC(CNCCC(=O)OC)OCC`, for which the GI50 in the test on NCI-H522, in the test with EKVX, with LOX IMVI, in the test with A549, with U-251 and in the test on HT-29 was > 10 µM (inactive) in each case. For the same compound, the GI50 with UO-31, with SK-OV-3, in the test on 786-0, with TK-10, in the test on PC-3 and in the test on NCI/ADR-RES was > 10 µM (inactive) in each case. Besides, the GI50 in the test on HCC 2998, in the test on SF-268, in the test with NCI-H226, in the test on Malme-3M, in the test with NCI-H23 and in the test on T47D was > 10 µM (inactive) in each case. In addition, the GI50 with HOP-92 and with SN12C was > 10 µM (inactive) throughout.

Regarding `O=[N+]([O-])c1ccccc1S(=O)(=O)c1ccccc1[N+](=O)[O-]`, the GI50 was > 67.6 µM (inactive) with NCI-H522; > 56.2 µM (inactive) in the test with EKVX; > 100 µM (inactive) with LOX IMVI; > 56.2 µM (inactive) with A549; 28.9 µM (inactive) in the test on U-251; > 100 µM (inactive) in the test with HT-29. The GI50 was > 82.2 µM (inactive) in the test with UO-31; > 90.8 µM (inactive) with SK-OV-3; 64.6 µM (inactive) with 786-0; 53.7 µM (inactive) in the test with TK-10; > 100 µM (inactive) with PC-3; > 100 µM (inactive) with NCI/ADR-RES. The GI50 was > 100 µM (inactive) in the test on HCC 2998; 31.7 µM (inactive) with SF-268; > 79.3 µM (inactive) in the test with NCI-H226; > 100 µM (inactive) with Malme-3M; 74.5 µM (inactive) in the test with NCI-H23; > 100 µM (inactive) in the test with T47D. Moreover, the GI50 was 32.4 µM (inactive) in the test on HOP-92 and > 100 µM (inactive) with SN12C.

Turning to `O=C(Sc1c(-c2ccccc2)c(=O)n(-c2ccccc2)c(=S)n1-c1ccccc1)c1ccco1`, the GI50 was > 76.9 µM (inactive) in the test with NCI-H522; > 100 µM (inactive) in the test with EKVX; > 100 µM (inactive) with LOX IMVI; > 100 µM (inactive) in the test on A549; > 100 µM (inactive) with U-251; > 100 µM (inactive) in the test on HT-29. Moreover, the GI50 in the test on UO-31, in the test on SK-OV-3, in the test with 786-0, in the test on TK-10, in the test on PC-3 and in the test on NCI/ADR-RES was > 100 µM (inactive) in each case. In addition, the GI50 was > 100 µM (inactive) with HCC 2998; > 100 µM (inactive) in the test with SF-268; > 100 µM (inactive) in the test with NCI-H226; > 69.5 µM (inactive) with Malme-3M; > 100 µM (inactive) with NCI-H23; > 100 µM (inactive) in the test with T47D. For the same compound, the figures for the GI50 with HOP-92 and with SN12C were > 52.2 µM (inactive) and > 100 µM (inactive), respectively.
